# Test results published in US20230312528A1, “2-OXO-IMIDAZOLIDINE-4-CARBOXAMIDES AS NAV1.8 INHIBITORS” (Merck Sharp & Dohme LLC, priority 2020, published 2023).
# Target: human NaV1.8 (Homo sapiens (Human), UniProt Q9Y5Y9)
# Experiment: Nav1.8 Qube automated patch-clamp assay
# Format: cell-based
# Conditions: human NaV1.8 stably expressed in HEK 293 cells; automated 384-well patch-clamp; resting or inactivated state not specified
# Procedure: Compounds were tested on human NaV1.8 and NaV1.5 channels stably expressed in human embryo kidney (HEK) 293 cells. Sodium current measurements on Qube® were conducted as follows: automated 384-well patch-clamp assays on the Qube® platform (Sophion Biosciences) were used to measure the inhibition of sodium flow through human NaV1.8 and NaV1.5 channels. Whole-cell voltage-clamp recordings were performed in QChips® (Sophion Biosciences) at room temperature. NaV1.8 current measurements on Qube® were obtained as follows: NaV1.8 currents were elicited with a 10 second 1 Hertz (Hz) pulse train from a holding potential of −90 millivolts (mV), delivered to the cells once per minute in the control condition (DMSO only) and after compound addition. The 1 hertz pulse train stimulation consisted of ten test pulses to 10 millivolt (mV) for 20 milliseconds (ms), each of which was followed by a 980 millisecond repolarization to −67 millivolts. At the end of the 10 second pulse train stimulation, a 5 second hyperpolarization step to −100 millivolt (mV) was used to recover NaV1.8 from fast inactivation. The peak currents elicited by the 1st and 10th test pulses were used to determine IC50 values for resting inhibition and inactivated state inhibition. NaV1.5 current measurements on Qube® were obtained as follows: NaV1.5 currents were elicited with a 20 second 3 Hertz pulse train in the control condition (DMSO only) and after compound addition. The pulse train consisted of sixty 20 millisecond test pulses to 0 millivolt from a holding potential of −80 millivolt (mV). The average peak currents elicited by the last 3 test pulses were used to determine IC50 values for NaV1.5 inhibition.
# The following buffers were used for the Qube® recordings: External buffer for NaV1.8 Qube® recording: 150 NaCl, 2 CaCl2, 5 KCl, 1 Mg Cl2, 10 HEPES, 12 Dextrose; External buffer for Qube® NaV1.5 recording: 120 N-Methyl-D-Glucamine, 40 NaCl, 1 KCl, 2.7 CaCl2, 5 HEPES, 0.5 MgCl2; and Internal buffer for Qube® recording: 120 CsF, 30 CsCl, 10 EGTA, 5 HEPES, 5 NaF, 2 MgCl2.
# For all Qube® experiments offline analysis was used to determine percent inhibition as a function of drug concentration. IC50 values were determined by fitting to the Hill equation.
# human NaV1.8, sequence (Q9Y5Y9 whole entry): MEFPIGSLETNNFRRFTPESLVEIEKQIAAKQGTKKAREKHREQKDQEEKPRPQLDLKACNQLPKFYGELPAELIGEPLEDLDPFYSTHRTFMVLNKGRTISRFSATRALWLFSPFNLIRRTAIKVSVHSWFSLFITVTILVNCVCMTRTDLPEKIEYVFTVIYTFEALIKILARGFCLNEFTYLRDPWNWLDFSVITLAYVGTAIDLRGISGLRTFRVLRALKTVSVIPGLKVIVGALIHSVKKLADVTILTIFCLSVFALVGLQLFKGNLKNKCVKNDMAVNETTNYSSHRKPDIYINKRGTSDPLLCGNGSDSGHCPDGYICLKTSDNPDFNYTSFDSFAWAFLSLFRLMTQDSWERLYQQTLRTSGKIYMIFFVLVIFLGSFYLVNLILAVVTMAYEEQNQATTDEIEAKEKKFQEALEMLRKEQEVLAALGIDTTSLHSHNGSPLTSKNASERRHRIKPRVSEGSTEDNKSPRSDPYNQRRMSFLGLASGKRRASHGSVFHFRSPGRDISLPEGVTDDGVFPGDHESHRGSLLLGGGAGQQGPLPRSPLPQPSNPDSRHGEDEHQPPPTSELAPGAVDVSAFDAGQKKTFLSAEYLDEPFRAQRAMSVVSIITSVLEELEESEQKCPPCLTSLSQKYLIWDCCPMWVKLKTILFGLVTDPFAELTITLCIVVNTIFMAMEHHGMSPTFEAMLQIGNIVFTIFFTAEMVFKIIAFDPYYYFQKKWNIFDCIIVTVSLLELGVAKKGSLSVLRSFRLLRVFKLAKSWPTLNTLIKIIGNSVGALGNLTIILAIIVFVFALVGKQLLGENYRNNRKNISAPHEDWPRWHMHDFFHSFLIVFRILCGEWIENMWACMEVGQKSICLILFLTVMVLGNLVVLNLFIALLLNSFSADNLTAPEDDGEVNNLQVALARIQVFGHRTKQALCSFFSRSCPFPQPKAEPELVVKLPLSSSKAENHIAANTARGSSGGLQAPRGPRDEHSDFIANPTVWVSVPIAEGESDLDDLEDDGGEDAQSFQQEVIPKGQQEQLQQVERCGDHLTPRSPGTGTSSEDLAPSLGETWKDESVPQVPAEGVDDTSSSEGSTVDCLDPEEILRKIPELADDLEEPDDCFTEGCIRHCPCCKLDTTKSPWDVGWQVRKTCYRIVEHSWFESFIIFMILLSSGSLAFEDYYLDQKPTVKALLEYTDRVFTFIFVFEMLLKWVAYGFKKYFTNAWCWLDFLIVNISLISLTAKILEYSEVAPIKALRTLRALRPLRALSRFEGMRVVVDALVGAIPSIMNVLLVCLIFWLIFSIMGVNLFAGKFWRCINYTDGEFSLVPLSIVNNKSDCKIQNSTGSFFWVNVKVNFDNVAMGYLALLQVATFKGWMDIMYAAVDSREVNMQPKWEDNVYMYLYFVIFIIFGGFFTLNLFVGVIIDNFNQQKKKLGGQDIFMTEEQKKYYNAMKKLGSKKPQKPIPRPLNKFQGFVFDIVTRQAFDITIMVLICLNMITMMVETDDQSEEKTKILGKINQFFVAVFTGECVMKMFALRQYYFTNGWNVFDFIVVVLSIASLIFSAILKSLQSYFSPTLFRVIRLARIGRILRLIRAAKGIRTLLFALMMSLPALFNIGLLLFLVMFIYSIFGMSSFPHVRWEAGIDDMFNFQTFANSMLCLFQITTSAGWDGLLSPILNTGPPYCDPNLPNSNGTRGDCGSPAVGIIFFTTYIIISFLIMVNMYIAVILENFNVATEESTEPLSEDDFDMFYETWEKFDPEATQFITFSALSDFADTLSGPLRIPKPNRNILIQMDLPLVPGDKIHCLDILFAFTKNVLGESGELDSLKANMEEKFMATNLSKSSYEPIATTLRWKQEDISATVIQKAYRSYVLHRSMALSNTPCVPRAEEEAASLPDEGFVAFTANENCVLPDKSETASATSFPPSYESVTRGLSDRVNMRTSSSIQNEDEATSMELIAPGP
row,SMILES,IC50 [nM]
1,"O=C1NC[C@@H](C(=O)NC(c2ccc(OC(F)(F)F)nc2)c2ccc(F)c(Cl)c2F)N1 (single isomer, unassigned) [Example 24B, (4S)-N-{(R or S)-(3-chloro-2,4-difluorophenyl)[6-(trifluoromethoxy)pyridin-3-yl]methyl}-2-oxoimidazolidine-4-carboxamide]",41
2,"O=C1NC[C@@H](C(=O)NC(CC2CCCOC2)c2ccc(F)c(Cl)c2F)N1 (single isomer, unassigned) [Example 26A, (S)-N-((R or S)-1-(3-chloro-2,4-difluorophenyl)-2-((R or S)-tetrahydro-2H-pyran-3-yl)ethyl)-2-oxoimidazolidine-4-carboxamide]",413
3,"O=C1NC[C@@H](C(=O)NC(CC2CCCOC2)c2ccc(F)c(Cl)c2F)N1 (single isomer, unassigned) [Example 26B, (S)-N-((R or S)-1-(3-chloro-2,4-difluorophenyl)-2-((R or S)-tetrahydro-2H-pyran-3-yl)ethyl)-2-oxoimidazolidine-4-carboxamide]",22200
4,"O=C1NC[C@@H](C(=O)NC(CC2CCCOC2)c2ccc(F)c(Cl)c2F)N1 (single isomer, unassigned) [Example 26C, (S)-N-((R or S)-1-(3-chloro-2,4-difluorophenyl)-2-((R or S)-tetrahydro-2H-pyran-3-yl)ethyl)-2-oxoimidazolidine-4-carboxamide]",386
5,"O=C1NC[C@@H](C(=O)NC(CC2CCCOC2)c2ccc(F)c(Cl)c2F)N1 (single isomer, unassigned) [Example 26D, (S)-N-((R or S)-1-(3-chloro-2,4-difluorophenyl)-2-((R or S)-tetrahydro-2H-pyran-3-yl)ethyl)-2-oxoimidazolidine-4-carboxamide]",7830
6,"O=C1NC[C@@H](C(=O)NC(c2ccc(F)c(Cl)c2F)C23CC(C(F)(F)F)(C2)C3)N1 (single isomer, unassigned) [Example 27A, (4S)—N—((R or S)-(3-chloro-2,4-difluorophenyl)(3-(trifluoromethyl)bicyclo[1.1.1]pentan-1-yl)methyl)-2-oxoimidazolidine-4-carboxamide]",5.8
7,"O=C1NC[C@@H](C(=O)NC(c2ccc(F)c(Cl)c2)c2ccn(CC(F)(F)F)n2)N1 (single isomer, unassigned) [Example 28A, (4S)-N-{(R or S)-(3-chloro-4-fluorophenyl)[1-(2,2,2-trifluoroethyl)-1H-pyrazol-3-yl]methyl}-2-oxoimidazolidine-4-carboxamide]",633
8,"O=C1NC[C@@H](C(=O)NC(c2ccc(F)c(Cl)c2)c2ccn(CC(F)(F)F)n2)N1 (single isomer, unassigned) [Example 28B, (4S)-N-{(R or S)-(3-chloro-4-fluorophenyl)[1-(2,2,2-trifluoroethyl)-1H-pyrazol-3-yl]methyl}-2-oxoimidazolidine-4-carboxamide]",436
9,"O=C1NC[C@@H](C(=O)NC(COC2CCC(F)(F)CC2)c2ccc(F)c(Cl)c2)N1 (single isomer, unassigned) [Example 29B, (4S)-N-{1-((R or S)-3-chloro-4-fluorophenyl)-2-[(4,4-difluoro-cyclohexyl)oxy]ethyl}-2-oxoimidazolidine-4-carboxamide]",161
10,"CC1(C)CC(C(NC(=O)[C@@H]2CNC(=O)N2)c2ccc(F)c(Cl)c2F)C1 (single isomer, unassigned) [Example 30A, (4S)-N-[(R or S)-(3-chloro-2,4-di-fluoro-phenyl)(3,3-dimethylcyclobutyl)meth-yl]-2-oxoimidazolidine-4-carboxamide]",4.6
11,"CC1(C)CC(C(NC(=O)[C@@H]2CNC(=O)N2)c2ccc(F)c(Cl)c2F)C1 (single isomer, unassigned) [Example 30B, (4S)-N-[(R or S)-(3-chloro-2,4-di-fluorophenyl)(3,3-dimethylcyclobutyl)meth-yl]-2-oxoimidazolidine-4-carboxamide]",458
12,"Cn1nc(C(F)(F)F)cc1C(NC(=O)[C@@H]1CNC(=O)N1)c1ccc(F)c(Cl)c1 (single isomer, unassigned) [Example 31A, (S)-N-((R or S)-(3-chloro-4-fluorophenyl)(1-methyl-3-(tri-fluoromethyl)-1H-pyrazol-5-yl)methyl)-2-oxoimidazolidine-4-carboxamide]",5.2
13,"Cn1nc(C(F)(F)F)cc1C(NC(=O)[C@@H]1CNC(=O)N1)c1ccc(F)c(Cl)c1 (single isomer, unassigned) [Example 31B, (S)-N-((R or S)-(3-chloro-4-fluorophenyl)(1-methyl-3-(tri-fluoromethyl)-1H-pyrazol-5-yl)methyl)-2-oxoimidazolidine-4-carboxamide]",268

# Continued, values first:
row,IC50 [nM],SMILES
1,3.1,"O=C1NC[C@@H](C(=O)NC(c2ccc(OC(F)(F)F)nc2)c2ccc(F)c(Cl)c2F)N1 (single isomer, unassigned) [Example 24A, (4S)-N-{(R or S)-(3-chloro-2,4-difluorophenyl)[6-(trifluoromethoxy)pyridin-3-yl]methyl}-2-oxoimidazolidine-4-carboxamide]"
2,22,"O=C1NC[C@@H](C(=O)NC(CC2CCC(F)(F)CC2)c2ccc(F)c(Cl)c2F)N1 (single isomer, unassigned) [Example 25A, (S)-N-((R or S)-1-(3-chloro-2,4-difluorophenyl)-2-(4,4-difluorocyclohexyl)ethyl)-2-oxoimidazolidine-4-carboxamide]"
3,189,"O=C1NC[C@@H](C(=O)NC(CC2CCC(F)(F)CC2)c2ccc(F)c(Cl)c2F)N1 (single isomer, unassigned) [Example 25B, (S)-N-((R or S)-1-(3-chloro-2,4-difluorophenyl)-2-(4,4-difluorocyclohexyl)ethyl)-2-oxoimidazolidine-4-carboxamide]"
4,244,"O=C1NC[C@@H](C(=O)NC(c2ccc(F)c(Cl)c2F)C23CC(C(F)(F)F)(C2)C3)N1 (single isomer, unassigned) [Example 27B, (4S)—N—((R or S)-(3-chloro-2,4-difluorophenyl)(3-(trifluoromethyl)bicyclo[1.1.1]pentan-1-yl)methyl)-2-oxoimidazolidine-4-carboxamide]"
5,110,"O=C1NC[C@@H](C(=O)NC(COC2CCC(F)(F)CC2)c2ccc(F)c(Cl)c2)N1 (single isomer, unassigned) [Example 29A, (4S)-N-{1-((R or S)-3-chloro-4-fluorophenyl)-2-[(4,4-difluoro-cyclohexyl)oxy]ethyl}-2-oxoimidazolidine-4-carboxamide]"
6,3.4,"O=C1NC[C@@H](C(=O)NC(c2ccc(F)c(Cl)c2)[C@H]2CC[C@H](C(F)(F)F)CC2)N1 (single isomer, unassigned) [Example 32A, (4S)—N—((R or S)-(3-chloro-4-fluorophenyl)(trans-4-(trifluoromethyl)cyclohexyl)methyl)-2-oxoimidazolidine-4-carboxamide]"
7,67,"O=C1NC[C@@H](C(=O)NC(c2ccc(F)c(Cl)c2)[C@H]2CC[C@H](C(F)(F)F)CC2)N1 (single isomer, unassigned) [Example 32B, (4S)—N—((R or S)-(3-chloro-4-fluorophenyl)(trans-4-(trifluoro-methyl)cyclohexyl)methyl)-2-oxoimidazolidine-4-carboxamide]"
8,1.3,"O=C1NC[C@@H](C(=O)NC(c2ccc(OCC(F)(F)F)nc2)c2ccc(F)c(Cl)c2F)N1 (single isomer, unassigned) [Example 33A, (S)—N—((R or S)-(3-chloro-2,4-difluorophenyl)(6-(2,2,2-trifluoroethoxy)pyridin-3-yl)methyl)-2-oxoimidazolidine-4-carboxamide]"
9,39,"O=C1NC[C@@H](C(=O)NC(c2ccc(OCC(F)(F)F)nc2)c2ccc(F)c(Cl)c2F)N1 (single isomer, unassigned) [Example 33B, (S)—N—((R or S)-(3-chloro-2,4-difluorophenyl)(6-(2,2,2-trifluoroethoxy)pyridin-3-yl)methyl)-2-oxoimidazolidine-4-carboxamide]"
10,3.8,"O=C1NC[C@@H](C(=O)NC(c2ccc(F)c(Cl)c2F)[C@H]2C[C@H](C(F)(F)F)C2)N1 (single isomer, unassigned) [Example 34A, (S)—N—((R or S)-(3-chloro-2,4-difluorophenyl)(trans-3-(trifluoromethyl)cyclobutyl)methyl)-2-oxoimidazolidine-4-carboxamide]"
11,76,"O=C1NC[C@@H](C(=O)NC(c2ccc(F)c(Cl)c2F)[C@H]2C[C@H](C(F)(F)F)C2)N1 (single isomer, unassigned) [Example 34B, (S)—N—((R or S)-(3-chloro-2,4-difluorophenyl)(trans-3-(trifluoromethyl)cyclobutyl)methyl)-2-oxoimidazolidine-4-carboxamide]"
